Results as given in patent publication US20250313653A1, “GUEST/HOST INCLUSION COMPLEXES CONTAINING S-NITROSOGLUTATHIONE AND METHODS OF USE THEREOF” (VIRGINIA COMMONWEALTH UNIVERSITY, priority 2022, published 2025).

What was measured:
S. aureus = assay: Prevention of extraluminal biofilm on silicone catheters; assay type: cell-based; conditions: 3-day experiments, 0.1 M GSNO without or with 0.1 M αCD as lock solution, 37° C.
Description: Both biofilm and planktonic bacteria were quantified to evaluate the antibacterial activities of the proposed method. LB medium (25 mg/mL) was used to culture all bacterial strains overnight before performing the antibacterial tests. Segments of medical-grade silicone tubes were all autoclaved. Lock solutions were freshly prepared using the sterilized buffer and filtered through a 0.22 m PES syringe filter. The biofilms on the silicone surface were dip-rinsed 5 times in PBS and detached by 1-min vertexing, 1-min sonication (20% power of a 150 W probe sonifier, Branson Ultrasonics), and another 1-min vertexing for plate counting. When quantifying the planktonic bacteria, the suspension was homogenized by 1-min vertexing. […] After plate incubation at 37° C. overnight, colony-forming units (CFU) of bacteria were counted and converted to CFU/cm^2 for biofilm quantification and CFU/mL for planktonic bacteria quantification. […] In our case, the limit of detection (LOD) is 400 CFU/cm^2 for biofilm quantification and 200 CFU/mL for quantification of planktonic bacteria. […] The statistical significance between groups was determined using a student's t-test.
The overnight S. aureus culture was diluted by LB (0.25 mg/mL) medium to approximately 10^3 CFU/mL. […] The viable bacteria on the outer surface were counted following the treatment.

[1] = NO release from silicone rubber tubes filled with lock solutions; assay type: physicochemical; conditions: silicone tube filled with 0.1 M GSNO without or with 0.1 M αCD, 37° C.
Description: (§1) The NO release was quantified by an ECO PHYSICS NO analyzer (nCLD 66). […] of castor oil was added to NO release solutions as an antifoam agent when 3 mL GSNO or GSNO-CD solutions were tested in an amber glass cell at 37° C. Humidified air was vacuumed into the solution to carry NO continuously into the chemiluminescence detection chamber at a flow rate of 100 cm^3/min. The solutions were stored in sealed amber glass vials between measurements at 37° C. To monitor the NO release from catheters, solutions were filled into 2.5 cm-long medical-grade silicone tubes (HelixMark® 60-011-07, 1.58 mm ID, 2.41 mm OD) that were scaled on both ends with plastic rods. The filled tubes were placed into the amber glass cell containing 5 mL of 0.01 M PBS with 0.1 mM EDTA (PBSE) at 37° C. N2 was used as the carrier gas at a flow rate of 100 cm^3/min to introduce NO into the analyzer. Filled tubes were stored in 10 mL PBSE at 37° C. in the dark between measurements. The soaking PBSE solution was refreshed after each measurement.

[2] = NO release from GSNO solutions (chemiluminescence NO analyzer); assay type: physicochemical; conditions: 3 mL of 0.1 M GSNO solution with or without an equal mole of αCD, 37° C.
Description: as §1

[3] = GSNO decomposition in the presence of biologically relevant reactants (cysteine, L-ascorbic acid, BSA); assay type: physicochemical; conditions: for GSNO left after 24 h of storage: 0.1 M GSNO with 20 mg/mL BSA, 37° C.
Description: GSNO was synthesized by nitrosation of reduced L-glutathione in acidified nitrite as previously reported.^52 After collecting GSNO precipitates and washing them using cold water and acetone, GSNO powder was vacuum dried for 4 h and stored at −20° C. GSNO powders were dissolved in phosphate buffer (PB) containing the same mole of Na2HPO4 before the pH adjustment. For example, the formal concentration of Na2HPO4 is 0.1 M when the GSNO concentration is 0.1 M. One hundred μM EDTA was always added to each solution before the solution pH was finally adjusted to 7.4 via NaOH. EDTA is a chelating agent to mask Cu^2+, a S-nitrosothiol catalyst that may exist in solvents and chemicals as an impurity.^53 For solutions with reactive agents, BSA, ascorbic acid, or cysteine was added before the pH adjustment. To prepare GSNO-CD solutions, appropriate amounts of CD powders were dissolved into the GSNO solutions prior to the pH adjustment.
Aqueous GSNO solutions were contained in 1.5 mL disposable polystyrene cuvettes. The cuvette was caped and further sealed with parafilm. The concentrations of GSNO during storage at 37° C. or 25° C. in the dark were monitored by a UV-vis spectrophotometer (Go Direct® Fluorescence/UV-VIS Spectrophotometer) at a wavelength of 545 nm. A 4 W LED white light was used as the light source for the photodecomposition experiment at room temperature. The distance between the light source and the cuvettes was approximately 10 cm. All GSNO decomposition experiments were triplicated, and the GSNO concentration was expressed as mean±standard deviation.

[4] = administrated in humans, dogs, and rats at appropriate doses; cited from earlier work
[5] = Stability of GSNO in agar hydrogel (colour fading); assay type: physicochemical; conditions: 1% agar hydrogel, 0.1 M GSNO, 37° C.
Description: Two grams of agar were dissolved in 100 mL of 0.1 M phosphate buffer at pH 7.4 at 80° C. for 3 h with stirring. GSNO solutions at 0.2 M with or without 0.2 M αCD in 0.1 M phosphate buffer at pH 7.4 were prepared separately. Then, 0.5 mL GSNO solution and 0.5 mL dissolved agar were mixed and put into an ice bath to facilitate gelation.

For `N[C@@H](CCC(=O)N[C@@H](CSN=O)C(=O)NCC(=O)O)C(=O)O` [GSNO, S-nitrosoglutathione], the “reduction of bacterial biofilm on the outer catheter surface compared to control solutions” value (S. aureus) was 70%, the “initial release of NO on day 0” value [1] was 14.8×10^−10 mol cm^−2 min^−1 and the “duration of NO release over 0.1×10^−10 mol cm^−2 min^−1 from the catheter exterior” value ([1]; in pH 7.4 PBSE) was 6 days. For the same compound, the “duration of NO release” value [2] was 6 days, the GSNO lifetime ([3]; 0.1 M GSNO in 0.1 M PB pH 7.4 with 10 mM cysteine or L-ascorbic acid, without αCD) was 2 to 3 days and the “effect on GSNO decomposition rate” value ([3]; 0.1 M GSNO with 10 mM cysteine or L-ascorbic acid, addition of 0.1 M αCD, 4-day experiments) was “remarkably reduces the decomposition rate”. For the same compound, the “GSNO left after 24 h of storage” value ([3]; control group without αCD) was 21%, the “GSNO left after 24 h of storage” value ([3]; in the presence of 0.1 M αCD) was 41% and the “toxicities in in vivo studies” value [4] was “did not reveal any toxicities”. The “time the reddish color of GSNO lasts” value ([5]; with an equal mole of αCD) was “more than 6 days” and the “time in which the reddish color of GSNO fades” value ([5]; without αCD) was “less than 2 days”.
